Results published in publication PMC11141866, “Pyrimidine depletion enhances targeted and immune therapy combinations in acute myeloid leukemia” (JCI Insight, 2024).
In brackets after ≈: the same amount, converted by molar mass. Several values for one entry are separate records, joined by “and”; a condition that tells them apart may be missing. Identical values can stand only once. Like-named read-outs stand apart in the source and are kept apart here.

Experiments:
hERG = hERG (Homo sapiens, UniProt Q12809); experiment: hERG (Q-Patch); type: cell-based
hERG, sequence (Q12809 whole entry): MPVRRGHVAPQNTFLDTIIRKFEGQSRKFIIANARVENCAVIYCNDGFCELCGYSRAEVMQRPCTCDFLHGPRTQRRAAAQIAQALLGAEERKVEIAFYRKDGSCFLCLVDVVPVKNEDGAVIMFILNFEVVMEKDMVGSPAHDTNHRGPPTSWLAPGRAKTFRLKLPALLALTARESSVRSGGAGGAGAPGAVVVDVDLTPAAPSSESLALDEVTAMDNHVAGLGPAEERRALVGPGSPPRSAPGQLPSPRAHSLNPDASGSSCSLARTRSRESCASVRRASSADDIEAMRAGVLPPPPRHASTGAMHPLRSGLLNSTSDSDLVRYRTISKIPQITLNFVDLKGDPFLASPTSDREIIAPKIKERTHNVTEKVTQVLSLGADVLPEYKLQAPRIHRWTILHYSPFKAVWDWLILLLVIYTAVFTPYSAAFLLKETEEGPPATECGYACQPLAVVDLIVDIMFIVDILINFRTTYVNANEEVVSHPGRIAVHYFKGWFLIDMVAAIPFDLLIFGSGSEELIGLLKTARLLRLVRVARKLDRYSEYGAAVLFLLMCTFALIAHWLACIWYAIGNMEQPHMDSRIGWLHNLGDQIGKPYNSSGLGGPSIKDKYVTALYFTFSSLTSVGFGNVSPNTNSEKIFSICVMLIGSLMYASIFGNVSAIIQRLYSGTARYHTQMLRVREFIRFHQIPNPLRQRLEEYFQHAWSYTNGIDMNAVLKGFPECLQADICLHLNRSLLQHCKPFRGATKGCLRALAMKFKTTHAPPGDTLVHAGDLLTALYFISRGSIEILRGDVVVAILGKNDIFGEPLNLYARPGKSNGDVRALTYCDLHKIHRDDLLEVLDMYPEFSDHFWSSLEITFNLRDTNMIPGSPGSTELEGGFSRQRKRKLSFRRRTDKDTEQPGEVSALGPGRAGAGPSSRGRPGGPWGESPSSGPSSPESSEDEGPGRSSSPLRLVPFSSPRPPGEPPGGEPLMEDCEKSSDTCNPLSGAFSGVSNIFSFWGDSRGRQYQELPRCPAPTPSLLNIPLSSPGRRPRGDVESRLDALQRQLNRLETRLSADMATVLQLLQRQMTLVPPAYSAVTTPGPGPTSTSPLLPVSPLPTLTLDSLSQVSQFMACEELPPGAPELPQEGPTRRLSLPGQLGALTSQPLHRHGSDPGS
From the text: (§1) Supplement jciinsight-9-173646-s083.xlsx, sheet "Supplemental Table S.2." | column: HOSU-53

Thermodynamic solubility = type: physicochemical; conditions: thermodynamic from solid
From the text: as §1

[1] = tested on: MOLM-13 disseminated CDX AML model; experiment: MOLM-13 CDX efficacy study correlated with PK/PD (survival); type: in vivo
Experimental: Male 8- to 12-week-old NCG mice were engrafted with 1 × 10^5 cells via tail vein i.v. injection. Four days after engraftment (day 1 of treatment), mice (n = 9–10/arm) were randomized to receive p.o. qd vehicle (40% HPβCD) or p.o. qd HOSU-53 at 4, 10, and 20 mg/kg or 30 mg/kg biwk till moribundity or end of study, day 73. An additional study was done for PK/PD correlation with the survival study where 9 mice per group were randomized to receive p.o. qd vehicle (40% HPβCD) or p.o. qd HOSU-53 at 4, 10, and 20 mg/kg or 30 mg/kg biwk till day 14. Mice were bled for plasma collection to analyze HOSU-53 and DHO concentrations 1 day after the first dose and on day 14 for cumulative plasma concentration analysis. Figure 3B and Figure 4, A and B, share the same vehicle group.

CYP 2D6 = CYP 2D6 (Homo sapiens, UniProt P10635); experiment: CYP inhibition 2D6; type: in vitro ADME
CYP 2D6, sequence (P10635 whole entry): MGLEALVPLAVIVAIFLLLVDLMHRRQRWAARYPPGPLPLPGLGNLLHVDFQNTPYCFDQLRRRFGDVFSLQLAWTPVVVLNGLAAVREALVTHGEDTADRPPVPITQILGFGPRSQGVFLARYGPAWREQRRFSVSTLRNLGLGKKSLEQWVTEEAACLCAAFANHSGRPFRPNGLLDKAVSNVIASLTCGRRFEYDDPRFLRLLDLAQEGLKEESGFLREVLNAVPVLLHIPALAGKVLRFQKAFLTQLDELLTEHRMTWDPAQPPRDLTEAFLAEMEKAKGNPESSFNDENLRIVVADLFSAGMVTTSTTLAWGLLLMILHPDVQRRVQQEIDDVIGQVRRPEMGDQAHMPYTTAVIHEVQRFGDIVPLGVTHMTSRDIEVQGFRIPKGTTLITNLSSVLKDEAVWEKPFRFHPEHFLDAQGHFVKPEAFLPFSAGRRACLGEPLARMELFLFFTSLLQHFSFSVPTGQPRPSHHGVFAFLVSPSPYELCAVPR
From the text: as §1

[2] = target: T1, human DHODH (hDHODH, amino acid residues 31-395) (Homo sapiens, UniProt Q02127); experiment: Cell-free human DHODH enzyme inhibition assay; type: biochemical
T1 construct: purchased Reaction Biology (assay run there as a service)
T1 sequence (Q02127 31-395): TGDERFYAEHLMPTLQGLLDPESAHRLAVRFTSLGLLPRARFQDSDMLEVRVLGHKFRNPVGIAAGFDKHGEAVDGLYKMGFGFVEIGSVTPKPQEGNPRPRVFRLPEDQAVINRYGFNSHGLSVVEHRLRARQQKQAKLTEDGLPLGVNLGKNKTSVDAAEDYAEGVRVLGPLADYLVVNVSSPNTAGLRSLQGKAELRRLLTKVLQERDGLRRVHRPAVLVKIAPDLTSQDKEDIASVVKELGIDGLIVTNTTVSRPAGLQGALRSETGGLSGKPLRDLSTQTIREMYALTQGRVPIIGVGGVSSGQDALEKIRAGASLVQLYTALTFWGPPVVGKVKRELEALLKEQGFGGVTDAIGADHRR
Experimental: Details are described in the Supplemental Methods. […]
Enzyme inhibition of human DHODH […]
performed at Reaction Biology (Malvern, PA, USA). Briefly, a two-step fluorescence-based assay was used to test compounds in duplicates using a 10-dose IC50 mode with 3-fold serial dilution starting at 1 µM or 10 µM. The enzymatic step for hDHODH (used at […]
to orotate and followed by resazurin (used at 60 or 80 µM per reaction) catalyzed to […]
resorufin. […]

[3] = tested on: MOLM-13 disseminated CDX AML model; experiment: MOLM-13 CDX synergy with anti-CD47 immunotherapy; type: in vivo, NCG mice; conditions: event 1 = death, 0 = censored
Experimental: Male 8- to 12-week-old NCG mice were engrafted with […] cells via tail vein i.v. injection. Four days after engraftment (day 1 of treatment), mice (n = 10/arm) were randomized to receive p.o. qd and i.p. vehicle, daily oral 4 mg/kg or 10 mg/kg HOSU-53, 0.5 mg/animal i.p. anti-CD47 B6H12 (BioXCell) daily for 21 days, or HOSU-53 combination with anti-CD47. At day 80, half of the surviving mice in the combination cohorts were euthanized for bone marrow collection, leaving the remaining mice in the group on study without receiving any treatment. […] Figure 8, A and B, share the same vehicle and anti-CD47 cohorts.

Micronucleus Test = conditions: 5 strain test with S9 activation (so in the source)
From the text: as §1

CYP 1A2 = CYP 1A2 (Homo sapiens, UniProt P05177); experiment: CYP inhibition 1A2; type: in vitro ADME
CYP 1A2, sequence (P05177 whole entry): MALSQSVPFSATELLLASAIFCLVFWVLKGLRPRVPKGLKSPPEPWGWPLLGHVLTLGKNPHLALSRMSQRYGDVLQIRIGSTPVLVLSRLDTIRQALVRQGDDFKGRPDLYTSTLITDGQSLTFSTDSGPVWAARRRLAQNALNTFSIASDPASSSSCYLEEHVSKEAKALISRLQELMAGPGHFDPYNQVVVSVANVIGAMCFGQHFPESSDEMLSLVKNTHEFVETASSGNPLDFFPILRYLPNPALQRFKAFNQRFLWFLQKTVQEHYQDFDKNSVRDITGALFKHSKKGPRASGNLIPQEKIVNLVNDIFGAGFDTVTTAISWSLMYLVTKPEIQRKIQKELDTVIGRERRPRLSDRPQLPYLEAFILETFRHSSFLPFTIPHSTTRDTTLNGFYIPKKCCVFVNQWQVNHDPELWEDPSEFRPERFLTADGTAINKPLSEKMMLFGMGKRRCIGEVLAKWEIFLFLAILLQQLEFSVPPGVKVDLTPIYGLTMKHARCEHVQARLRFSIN
From the text: as §1

In vivo p.o. PK in dog = conditions: po
From the text: as §1

THP1 = experiment: MTS proliferation assay, THP1; type: cell-based; conditions: Homo sapiens, THP-1; THP1, 96-hour treatment; read-out: IC50 (MTS proliferation)
Experimental: (§2) A total of 10,000–20,000 cells from different AML lines or 50,000–75,000 cells of primary AML blasts were treated in a 96-well plate for 72 hours or 96 hours at 37°C, 5% CO2. CellTiter 96 Aqueous MTS reagent (Promega) was added to cells followed by a 3-hour incubation at 37°C, 5% CO2. The absorbance was measured at 490 nm using DTX 880 plate reader, and the IC50 was calculated using GraphPad Prism.

Mouse DHODH = Mouse DHODH (Mus musculus, UniProt O35435); experiment: Cell-free multi-species DHODH enzyme inhibition assay, mouse; type: biochemical; conditions: n=1
Mouse DHODH, sequence (O35435 whole entry): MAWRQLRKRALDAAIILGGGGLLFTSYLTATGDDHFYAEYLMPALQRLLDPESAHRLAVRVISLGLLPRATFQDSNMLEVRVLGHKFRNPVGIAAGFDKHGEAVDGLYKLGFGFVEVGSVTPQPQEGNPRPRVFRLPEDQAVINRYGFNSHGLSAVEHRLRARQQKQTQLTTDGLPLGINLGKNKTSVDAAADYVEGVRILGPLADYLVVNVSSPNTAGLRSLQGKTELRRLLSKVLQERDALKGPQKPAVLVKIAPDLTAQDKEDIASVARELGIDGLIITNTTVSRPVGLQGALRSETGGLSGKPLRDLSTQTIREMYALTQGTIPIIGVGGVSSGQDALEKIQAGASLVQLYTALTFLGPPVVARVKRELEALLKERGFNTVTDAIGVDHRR

In vivo p.o. PK in rat = conditions: po
From the text: as §1

primary AML samples = experiment: MTS proliferation assay, primary AML samples; type: cell-based, human; set-up: MTS proliferation data value: unit not given here; conditions: 96 h; for MTS proliferation data value: replicates; for IC50: Homo sapiens
Experimental: as §2

[4] = read-out: in vivo p.o. bioavailability (F)
[5] = read-out: in vivo p.o. t1/2 (converted)

CCCCOc1cccc(-c2ccc(-c3cc(C(=O)O)c4cc(F)ccc4n3)cc2)c1 [HOSU-53]
IC50 (hERG): > 30000 nM
solubility thermodynamic (Thermodynamic solubility; FaSSIF, heading: Thermodynamic solubility FaSSIF): 43 µM (≈ 17.9 µg/mL)
solubility thermodynamic (Thermodynamic solubility; FeSSIF, heading: Thermodynamic solubility FeSSIF): 373 µM (≈ 155 µg/mL)
solubility thermodynamic (Thermodynamic solubility; SGF, simulated gastric fluid, heading: Thermodynamic solubility SGF): < 1.56 µM
median survival ([1]; 10 mg/kg daily p.o.): 55 days
tolerability ([1]; 20 mg/kg daily p.o.): intolerable in approximately half the mice
median survival ([1]; 30 mg/kg twice weekly p.o.): 48 days
tolerability ([1]; 30 mg/kg twice weekly p.o.): well tolerated
Survival, day of study at event (per animal) ([1]; 4 mpk poqd): 44 days and 46 days and 43 days and 45 days and 36 days
Survival, day of study at event (per animal) ([1]; 10mpk poqd): 55 days and 52 days and 47 days and 60 days and 59 days and 49 days and 63 days and 58 days
Survival, day of study at event (per animal) ([1]; 20mpk poqd, flag 0 = censored): ≥ 73 days and 69 days and 46 days and 41 days and 40 days and 71 days and 11 days and 31 days
Survival, day of study at event (per animal) ([1]; 30mpk biwk): 50 days and 43 days and 42 days and 48 days and 46 days and 52 days and 44 days and 49 days
IC50 (CYP 2D6): 30100 nM
IC50 ([2]; cell-free multi-species assay, n=1, read-out: DHODH IC50 Human): 0.69 nM
IC50 ([2]; cell-free, HOSU-53, BAY, BRQ averaged from 6, 10, 4 replicates, read-out: hDHODH IC50): 0.95 nM
Days of Study (survival, per animal) ([3]; 4 mg/kg HOSU-53): 39 days and 46 days and 43 days and 42 days and 32 days and 40 days and 41 days
Days of Study (survival, per animal) ([3]; 10 mg/kg HOSU-53): 38 days and 50 days and 49 days and 51 days and 53 days and 52 days
Micronucleus Test (Micronucleus Test): Negative
IC50 (CYP 1A2): 19600 nM
bioavailability (In vivo p.o. PK in dog; [4]): 47%
half-life (In vivo p.o. PK in dog; [5]): 8.4 h
IC50 (THP1): 50 nM
IC50 (Mouse DHODH): 2.1 nM
bioavailability (In vivo p.o. PK in rat; [4]): 59%
half-life (In vivo p.o. PK in rat; [5]): 7.6 h
MTS proliferation data value (primary AML samples; 0.25 µM, Pt.1): 18.4884 and 20.0581 and 18.3139
MTS proliferation data value (primary AML samples; 0.25 µM, Pt.2): 32.3851 (2×) and 33.2604
MTS proliferation data value (primary AML samples; 0.25 µM, Pt.3): 55.8692 and 53.1947
MTS proliferation data value (primary AML samples; 0.25 µM, Pt.4): 65.8976 and 67.7546 and 63.7029
MTS proliferation data value (primary AML samples; 0.25 µM, Pt.5): 79.2706 and 80.6142 and 76.9674
MTS proliferation data value (primary AML samples; 0.25 µM, Pt.6): 33.7613 and 67.7492 and 73.4139
MTS proliferation data value (primary AML samples; 0.25 µM, Pt.7): 62.3298 and 55.7489 and 55.295
MTS proliferation data value (primary AML samples; 0.25 µM, Pt.8): 107.765 and 102.823 and 101.765
MTS proliferation data value (primary AML samples; 0.5 µM, Pt.1): 16.3954 and 17.2674 and 16.2209
MTS proliferation data value (primary AML samples; 0.5 µM, Pt.2): 27.5711 and 28.884 and 28.2276
MTS proliferation data value (primary AML samples; 0.5 µM, Pt.3): 49.3314 and 49.0342 and 46.211
MTS proliferation data value (primary AML samples; 0.5 µM, Pt.4): 54.2487 and 57.2876 and 57.4564
MTS proliferation data value (primary AML samples; 0.5 µM, Pt.5): 73.1286 and 69.0979 and 69.2898
MTS proliferation data value (primary AML samples; 0.5 µM, Pt.6): 55.9668 and 65.2568 and 57.5529
MTS proliferation data value (primary AML samples; 0.5 µM, Pt.7): 44.4024 and 40.0908 and 37.1407
MTS proliferation data value (primary AML samples; 0.5 µM, Pt.8): 86.9412 and 90.8235 and 88.3529
MTS proliferation data value (primary AML samples; 0.75 µM, Pt.1): 15 and 14.4767 and 15.1744
MTS proliferation data value (primary AML samples; 0.75 µM, Pt.2): 23.4136 and 22.1007 and 24.5077
MTS proliferation data value (primary AML samples; 0.75 µM, Pt.3): 39.8217 and 43.685 and 41.9019
MTS proliferation data value (primary AML samples; 0.75 µM, Pt.4): 52.2229 (2×) and 53.7423
MTS proliferation data value (primary AML samples; 0.75 µM, Pt.5): 64.4914 and 65.8349 (2×)
MTS proliferation data value (primary AML samples; 0.75 µM, Pt.6): 26.5106 and 39.426 and 36.7069
MTS proliferation data value (primary AML samples; 0.75 µM, Pt.7): 37.1407 and 39.8638 and 33.2829
MTS proliferation data value (primary AML samples; 0.75 µM, Pt.8): 77.0588 (2×) and 79.1765
MTS proliferation data value (primary AML samples; 1 µM, Pt.1): 14.4767 and 15.5233 and 13.7791
MTS proliferation data value (primary AML samples; 1 µM, Pt.2): 21.663 (2×) and 22.9759
MTS proliferation data value (primary AML samples; 1 µM, Pt.3): 40.1189 and 38.633 and 39.5245
MTS proliferation data value (primary AML samples; 1 µM, Pt.4): 47.327 and 51.7164 and 51.5476
MTS proliferation data value (primary AML samples; 1 µM, Pt.5): 64.6833 and 63.5317 and 66.6027
MTS proliferation data value (primary AML samples; 1 µM, Pt.6): 19.0332 and 30.5891 and 31.9486
MTS proliferation data value (primary AML samples; 1 µM, Pt.7): 33.9637 and 32.6021 and 29.879
MTS proliferation data value (primary AML samples; 1 µM, Pt.8): 72.1176 and 72.8235 (2×)
MTS proliferation data value (primary AML samples; 5 µM, Pt.1): 14.3023
MTS proliferation data value (primary AML samples; 5 µM, Pt.4): 43.444 and 45.8075 and 44.1193
MTS proliferation data value (primary AML samples; 5 µM, Pt.8): 55.5294
IC50 (primary AML samples; n = 8 samples, 96-hour treatment, read-out: median IC50 in primary AML patient samples): 120 nM
IC50 (primary AML samples; read-out: IC50 [95% CI], Pt. 1, 96-hour treatment): 23 nM
IC50 (primary AML samples; read-out: IC50 [95% CI], Pt. 2, 96-hour treatment): 103 nM
IC50 (primary AML samples; read-out: IC50 [95% CI], Pt. 3, 96-hour treatment): 85 nM
IC50 (primary AML samples; read-out: IC50 [95% CI], Pt. 4, 96-hour treatment): 112 nM
IC50 (primary AML samples; read-out: IC50 [95% CI], Pt. 5, 96-hour treatment): 129 nM
IC50 (primary AML samples; read-out: IC50 [95% CI], Pt. 6, 96-hour treatment): 155 nM
IC50 (primary AML samples; read-out: IC50 [95% CI], Pt. 7, 96-hour treatment): 169 nM
IC50 (primary AML samples; read-out: IC50 [95% CI], Pt. 8, 96-hour treatment): 584 nM
